Measurements reported in ChEMBL document CHEMBL1909046, “DrugMatrix in vitro pharmacology data”.

How the values were obtained:
[1] = biological target: Protein kinase C alpha type (Homo sapiens, UniProt P17252); type: cell-based; settings: sf9;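 note: inhibition of PKCalpha kinase activity measured in an enzyme assay with histone as the phosphorylation substrate; in other assays of this panel Not Active means under 50% inhibition at 10 µM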
[2] = biological target: T1, C-X-C chemokine receptor type 1 (Homo sapiens, UniProt P25024); note: in other assays of this panel Not Active means under 50% inhibition at 10 µM
T1 sequence (P25024 whole entry): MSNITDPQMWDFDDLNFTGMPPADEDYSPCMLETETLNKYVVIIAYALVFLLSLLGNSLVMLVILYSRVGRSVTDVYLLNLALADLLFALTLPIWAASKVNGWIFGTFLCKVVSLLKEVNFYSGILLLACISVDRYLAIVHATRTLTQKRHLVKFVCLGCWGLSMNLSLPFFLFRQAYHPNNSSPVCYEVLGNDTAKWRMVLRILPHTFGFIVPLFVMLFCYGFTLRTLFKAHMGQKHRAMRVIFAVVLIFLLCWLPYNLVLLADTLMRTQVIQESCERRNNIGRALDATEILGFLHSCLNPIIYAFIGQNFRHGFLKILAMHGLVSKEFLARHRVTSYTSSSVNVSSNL

[3] = biological target: T2, Polyunsaturated fatty acid lipoxygenase ALOX15 (Oryctolagus cuniculus, UniProt P12530); assay: biochemical; type: tissue-based, Reticulocytes;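 note: inhibition of 15-lipoxygenase enzyme activity measured with linoleic acid as the substrate; in other assays of this panel Not Active means under 50% inhibition at 10 µM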
T2 sequence (P12530 whole entry): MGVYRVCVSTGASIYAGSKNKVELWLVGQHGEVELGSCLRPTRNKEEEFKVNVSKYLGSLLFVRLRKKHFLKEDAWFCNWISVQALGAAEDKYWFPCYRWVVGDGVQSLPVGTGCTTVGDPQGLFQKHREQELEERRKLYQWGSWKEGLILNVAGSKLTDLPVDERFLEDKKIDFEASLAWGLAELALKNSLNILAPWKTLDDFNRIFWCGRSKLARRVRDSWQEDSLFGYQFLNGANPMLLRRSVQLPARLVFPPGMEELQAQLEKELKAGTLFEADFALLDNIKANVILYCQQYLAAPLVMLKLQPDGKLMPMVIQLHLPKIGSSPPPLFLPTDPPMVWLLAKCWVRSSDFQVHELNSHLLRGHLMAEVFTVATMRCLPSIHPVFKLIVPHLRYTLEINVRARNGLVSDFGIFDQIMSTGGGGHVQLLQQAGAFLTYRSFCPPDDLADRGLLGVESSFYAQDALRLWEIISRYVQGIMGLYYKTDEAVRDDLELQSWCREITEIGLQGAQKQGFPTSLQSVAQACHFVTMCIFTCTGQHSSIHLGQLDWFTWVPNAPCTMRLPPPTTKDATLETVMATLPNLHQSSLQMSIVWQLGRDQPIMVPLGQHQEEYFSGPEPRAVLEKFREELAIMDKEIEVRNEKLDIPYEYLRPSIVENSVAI

[4] = biological target: T3, Alpha-1B adrenergic receptor (Rattus norvegicus, UniProt P15823); assay: DRUGMATRIX: Alpha-1B adrenergic receptor radioligand binding (ligand: prazosin); type: cell membranes, Wistar, Liver, Membrane; settings: Not Active = under 50% inhibition at 10 µM
T3 sequence (P15823 whole entry): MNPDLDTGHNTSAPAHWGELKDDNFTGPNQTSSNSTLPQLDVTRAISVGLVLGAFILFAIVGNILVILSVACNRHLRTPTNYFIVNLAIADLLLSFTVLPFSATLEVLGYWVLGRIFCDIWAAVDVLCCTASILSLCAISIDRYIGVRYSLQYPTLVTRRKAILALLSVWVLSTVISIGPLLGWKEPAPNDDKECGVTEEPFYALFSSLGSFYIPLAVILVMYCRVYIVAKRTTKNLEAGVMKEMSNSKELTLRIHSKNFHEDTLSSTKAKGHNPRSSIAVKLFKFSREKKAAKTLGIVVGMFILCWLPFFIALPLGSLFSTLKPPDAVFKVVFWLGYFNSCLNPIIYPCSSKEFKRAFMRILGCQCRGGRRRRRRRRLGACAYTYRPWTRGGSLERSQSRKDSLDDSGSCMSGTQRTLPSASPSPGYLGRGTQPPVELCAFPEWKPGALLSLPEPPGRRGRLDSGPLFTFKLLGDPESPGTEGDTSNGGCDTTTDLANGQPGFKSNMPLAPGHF

[5] = biological target: T4, 5-hydroxytryptamine receptor 2C (Homo sapiens, UniProt P28335); assay: DRUGMATRIX: Serotonin (5-Hydroxytryptamine) 5-HT2C radioligand binding (ligand: [3H] Mesulergine); type: cell membranes, CHO-K1, Membrane; settings: Not Active = under 50% inhibition at 10 µM; for Ki: read-out: Ki
T4 sequence (P28335 whole entry): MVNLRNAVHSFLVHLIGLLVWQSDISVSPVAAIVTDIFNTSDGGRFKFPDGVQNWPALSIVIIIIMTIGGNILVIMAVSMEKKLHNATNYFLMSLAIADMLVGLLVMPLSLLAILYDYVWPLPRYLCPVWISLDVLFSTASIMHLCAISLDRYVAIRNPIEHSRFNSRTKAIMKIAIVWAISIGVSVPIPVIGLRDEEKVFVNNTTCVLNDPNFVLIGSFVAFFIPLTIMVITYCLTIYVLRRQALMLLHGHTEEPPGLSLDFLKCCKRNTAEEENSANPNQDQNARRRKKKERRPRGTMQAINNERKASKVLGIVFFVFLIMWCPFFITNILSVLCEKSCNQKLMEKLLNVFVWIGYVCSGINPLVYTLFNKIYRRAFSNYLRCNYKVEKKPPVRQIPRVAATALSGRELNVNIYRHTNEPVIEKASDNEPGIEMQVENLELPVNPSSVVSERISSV

[6] = biological target: Acetylcholinesterase (Homo sapiens, UniProt P22303); assay: DRUGMATRIX: Acetylcholinesterase enzyme inhibition (substrate: acetylthiocholine); type: cell-based, HEK293; settings: Not Active = under 50% inhibition at 10 µM
[7] = biological target: T5, Leukotriene C4 synthase (Cavia porcellus, UniProt A6XA80); assay: biochemical; type: tissue-based, Lung;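 note: enzyme inhibition assay of leukotriene C4 synthase, using LTA4 as the substrate; in other assays of this panel Not Active means under 50% inhibition at 10 µM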
T5 sequence (A6XA80 whole entry): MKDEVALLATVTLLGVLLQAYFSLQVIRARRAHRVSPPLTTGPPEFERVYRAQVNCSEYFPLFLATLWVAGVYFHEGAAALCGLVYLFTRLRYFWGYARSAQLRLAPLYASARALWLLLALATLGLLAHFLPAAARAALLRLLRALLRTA

[8] = biological target: T6, Endothelin-1 receptor (Homo sapiens, UniProt P25101); type: cell membranes, Membrane; settings: cho-k1; note: in other assays of this panel Not Active means under 50% inhibition at 10 µM
T6 sequence (P25101 whole entry): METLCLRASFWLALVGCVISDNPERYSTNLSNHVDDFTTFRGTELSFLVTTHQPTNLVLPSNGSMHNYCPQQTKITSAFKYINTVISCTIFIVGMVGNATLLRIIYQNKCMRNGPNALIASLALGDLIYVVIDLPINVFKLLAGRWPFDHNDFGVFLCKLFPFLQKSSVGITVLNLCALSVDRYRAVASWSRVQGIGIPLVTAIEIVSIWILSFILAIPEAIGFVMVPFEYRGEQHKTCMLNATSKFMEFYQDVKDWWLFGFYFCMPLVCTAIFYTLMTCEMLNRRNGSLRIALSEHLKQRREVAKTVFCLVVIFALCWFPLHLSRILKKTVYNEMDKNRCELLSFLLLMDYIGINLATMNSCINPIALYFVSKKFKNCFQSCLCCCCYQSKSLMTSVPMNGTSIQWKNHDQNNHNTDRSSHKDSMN

[9] = DRUGMATRIX: Atrial Natriuretic Factor (ANF) radioligand binding (ligand: [125I] ANF (rat)); type: cell membranes, Cavia porcellus, Dunkin-Hartley, Adrenal gland, Membrane; settings: Not Active = under 50% inhibition at 10 µM

Chain of Acetylcholinesterase (P22303 whole entry): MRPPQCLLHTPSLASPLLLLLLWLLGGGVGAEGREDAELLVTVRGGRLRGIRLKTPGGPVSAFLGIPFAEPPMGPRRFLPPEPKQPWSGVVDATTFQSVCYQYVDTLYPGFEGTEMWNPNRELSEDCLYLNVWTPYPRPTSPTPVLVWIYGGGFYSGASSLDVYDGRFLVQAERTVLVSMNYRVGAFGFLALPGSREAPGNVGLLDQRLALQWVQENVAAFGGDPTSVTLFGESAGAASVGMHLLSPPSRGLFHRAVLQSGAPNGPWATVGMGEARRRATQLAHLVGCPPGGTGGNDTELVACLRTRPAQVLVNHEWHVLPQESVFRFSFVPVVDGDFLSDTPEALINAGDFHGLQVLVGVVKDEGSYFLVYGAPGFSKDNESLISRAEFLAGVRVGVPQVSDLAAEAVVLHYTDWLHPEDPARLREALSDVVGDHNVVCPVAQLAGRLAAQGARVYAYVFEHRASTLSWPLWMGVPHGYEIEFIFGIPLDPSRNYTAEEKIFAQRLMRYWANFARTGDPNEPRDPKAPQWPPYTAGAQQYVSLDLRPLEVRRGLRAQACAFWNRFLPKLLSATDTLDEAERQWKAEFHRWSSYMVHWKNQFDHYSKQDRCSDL

Row | SMILES | IC50 [1] | IC50 [2] | IC50 ([3]; reticulocytes) | IC50 [4] | IC50 ([5]; cho-k1) | IC50 ([6]; hek293) | IC50 [7] | IC50 [8] | IC50 [9] | Ki [9] | IC50 ([5]; read-out: IC50) [µM] | Ki [5] [µM] | IC50 ([6]; read-out: IC50) [µM] | IC50 ([3]; read-out: IC50) [µM]
1 | CCOC(=O)[C@H](CCc1ccccc1)N[C@@H](C)C(=O)N1[C@H](C(=O)O)C[C@@H]2CCC[C@@H]21 | Not Active | Not Active | Not Active | Not Active | Not Active | Not Active | Not Active | Not Active | Not Active | Not Active | – | – | – | –
2 | CC(C)(C)NC(=O)[C@@H]1CN(Cc2cccnc2)CCN1C[C@@H](O)C[C@@H](Cc1ccccc1)C(=O)N[C@H]1c2ccccc2C[C@H]1O.O | Not Active | Not Active | Not Active | Not Active | Not Active | Not Active | Not Active | Not Active | Not Active | Not Active | – | – | – | –
3 | CC1(C)[C@H]2CC[C@]1(C)C(=O)C2 [(-)-CAMPHOR] | Not Active | Not Active | Not Active | Not Active | Not Active | Not Active | Not Active | Not Active | Not Active | Not Active | – | – | – | –
4 | CC(C)(C)NCC(O)c1ccc(O)c(CO)c1 (stereo not drawn) [ALBUTEROL] | Not Active | Not Active | Not Active | Not Active | Not Active | Not Active | Not Active | Not Active | Not Active | Not Active | – | – | – | –
5 | COc1ccc(CCN2CCC(Nc3nc4ccccc4n3Cc3ccc(F)cc3)CC2)cc1 [ASTEMIZOLE] | Not Active | Not Active | Not Active | – | – | Not Active | Not Active | Not Active | – | – | – | – | – | –
6 | CN(C)CCCN1c2ccccc2CCc2ccc(Cl)cc21 [CLOMIPRAMINE] | Not Active | Not Active | Not Active | – | – | Not Active | Not Active | Not Active | – | – | 0.034 | 0.018 | – | –
7 | Clc1ccccc1C(c1ccccc1)(c1ccccc1)n1ccnc1 [CLOTRIMAZOLE] | Not Active | Not Active | Not Active | – | – | – | Not Active | Not Active | – | – | 14.5 | 7.58 | 19.4 | –
8 | O=C(CCCN1CCC(O)(c2ccc(Cl)cc2)CC1)c1ccc(F)cc1 [HALOPERIDOL] | Not Active | Not Active | Not Active | – | – | Not Active | Not Active | Not Active | – | – | – | – | – | –
9 | Oc1c(I)cc(I)c2cccnc12 [IODOQUINOL] | Not Active | Not Active | Not Active | Not Active | Not Active | Not Active | Not Active | Not Active | Not Active | Not Active | – | – | – | –
10 | NNC(=O)c1ccncc1 [ISONIAZID] | Not Active | Not Active | Not Active | Not Active | Not Active | Not Active | Not Active | Not Active | Not Active | Not Active | – | – | – | –
11 | CN1CCN2c3ccccc3Cc3ccccc3C2C1 (stereo not drawn) [MIANSERIN] | Not Active | Not Active | Not Active | – | – | Not Active | Not Active | Not Active | – | – | – | – | – | –
12 | O=C1c2c(O)ccc(O)c2C(=O)c2c(NCCNCCO)ccc(NCCNCCO)c21 [MITOXANTRONE] | Not Active | Not Active | – | Not Active | – | Not Active | Not Active | Not Active | Not Active | Not Active | – | – | – | 1.79
13 | CC(C)(O)c1ccccc1CC[C@@H](SCC1(CC(=O)O)CC1)c1cccc(/C=C/c2ccc3ccc(Cl)cc3n2)c1 [MONTELUKAST] | Not Active | Not Active | Not Active | – | Not Active | Not Active | Not Active | Not Active | – | – | – | – | – | –
14 | CSc1ccc2c(c1)N(CCC1CCCCN1C)c1ccccc1S2 (stereo not drawn) [THIORIDAZINE] | Not Active | Not Active | Not Active | – | – | Not Active | Not Active | Not Active | – | – | – | – | – | –
15 | COc1cccc(C2(O)CCCCC2CN(C)C)c1 (stereo not drawn) [TRAMADOL] | Not Active | Not Active | Not Active | – | Not Active | Not Active | Not Active | Not Active | – | – | – | – | – | –
